How the values were obtained:
[1] = Plasma pharmacokinetics of naproxen after oral administration in rats; assay type: in vivo, rat; conditions: 2 mg/kg (amount of naproxen in dose)
Protocol: The carotid artery of Sprague-Dawley rat (250-350 g, male) was catheterized at least one day before drug administration and flushed with 30% polyvinyl pyrrolidone (PVP) (400 U/mL of heparin) to maintain patency. […] After centrifugation (13,000 rpm, 10 min, 4° C.), the plasma samples were collected and analyzed in the same day.
Aliquot of plasma sample (100 μL) was mixed with 200 μL of acetonitrile. After vortexing and centrifugation (13,000 rpm, 10 min, 4° C.), 200 μL of supernatant was removed and added to 300 μL of a 58:42 mixture of 50 mM phosphate buffer (pH 5.0) and acetonitrile. Following vortexing and centrifugation, 25 μL of supernatant was removed and analyzed by HPLC with a UV detection system.
The average plasma concentration at each time point was calculated and utilized in a pharmacokinetic analysis. Non-compartmental pharmacokinetic analysis was carried out using WinNolin (Pharsight, Mountainview, Calif.) to calculate the maximum concentration (Cmax), time to maximum concentration (Tmax), area under the curve from zero to the last time point (AUClast), the area under the curve from zero to infinite time (AUCinf), and the terminal phase half life (Beta-t1/2).

Sprague-Dawley rats = assay: Rat carrageenan-induced hindlimb edema model, paw volume increase; assay type: in vivo; conditions: for paw volume increase, 4 Hours / paw volume increase, 5 Hours: one hour before carrageenan
Protocol: Efficacy of NSAIDs in acute inflammation can be estimated by using intraplanar injection of carrageenan in the rat. Sprague-Dawley rats (200-250 g male) are injected intradermally in the footpad with 50 μl of a 1% carrageenan solution in PBS. Swelling of the injected paw is measured 3 & 4 hours later, using a plethysmometer.

- AUFINF [1]: 55 ± 7 μg * ht/mL
Compound: COc1ccc2cc([C@H](C)C(=O)O)ccc2c1 [Naproxen]
- paw volume increase, 4 Hours (Sprague-Dawley rats; naproxen 1 mg/kg oral): 0.63 ± 0.07
- paw volume increase, 5 Hours (Sprague-Dawley rats; naproxen 1 mg/kg oral): 0.75 ± 0.08
- paw volume increase, 4 Hours (Sprague-Dawley rats; naproxen 10 mg/kg oral): 0.32 ± 0.05
- paw volume increase, 5 Hours (Sprague-Dawley rats; naproxen 10 mg/kg oral): 0.39 ± 0.07
- reduction in swelling (Sprague-Dawley rats; oral 10 mg/kg one hour before carrageenan, at both time points): approximately 50%
